Test results as given in patent publication US20250188420A1, “MATURING AGENT HAVING BOTH OF ALK5 INHIBITORY ACTIVITY AND CDK8/19 INHIBITORY ACTIVITY” (ORIZURU THERAPEUTICS, INC., priority 2022, published 2025).
Like-named read-outs stand apart in the source and are kept apart here.

Tests used:
[1] = tested on: pancreatic progenitor cell population obtained from human iPS cells (Ff-I14-s04 line); assay: induction of differentiation of pancreatic progenitor cell population into insulin-positive cell population, flow cytometry; type: cell-based
Procedure: In this testing method, the induction of differentiation of human iPS cells (Ff-I14-s04 line) into a pancreatic progenitor cell population was carried out according to the above steps 1)-4), the previous report (Stem Cell Research (2015) 14, 185-197), etc. The induction of differentiation into insulin-positive cells was carried out according to the above step 5), 6), etc.
The number of insulin-positive and NKX6.1-positive cells and the number of CHGA-positive and PDX1-positive cells in the insulin-positive cell population obtained by the above method was counted by flow cytometry to determine the respective proportions of the cells in each cell population.
The number of insulin-positive and NKX6.1-positive cells in the insulin-positive cell population obtained by the above method was counted by flow cytometry to determine the respective proportions of the cells in each cell population.

[2] = tested on: CDK8 and CDK19 (CDK8/19); assay: binding evaluation test of kinase inhibitors against 11 kinases (FIG. 3); settings: compared among ALK5iII and nonmutagenic ALK5 inhibitors
Procedure: Next, the nonmutagenic ALK5 inhibitors (SB431542, SB525334, IN1130, and EW-7197) were also evaluated for their inhibitory activity against these 11 kinases.

[3] = tested on: Salmonella typhimurium TA100, TA1535, TA98, and TA1537 strains and an Escherichia coli WP2uvrA strain; assay: Ames test (mutagenicity evaluation); settings: no S9 fraction; FIG. 1
Procedure: (§1) The Ames test was conducted according to a conventionally known approach. That is, each bacterial strain of Salmonella typhimurium TA100, TA1535, TA98, and TA1537 strains and an Escherichia coli WP2uvrA strain was mixed with each compound with seven concentrations (78.1 to 5,000 μg/plate), preincubated in vitro for 20 minutes, and then inoculated, together with added semifluid agar, to a minimal glucose agar medium, followed by solidification and incubation at 37° C. for 48 hours. This experiment involved no rat liver S9 fraction because the experiment was aimed at evaluating the mutagenicity of each compound in a cell culture system, not evaluating metabolites obtained after metabolisms by hepatic enzymes. […] Positivity was determined when an average number of revertant colonies in any of the bacterial strains was at least twice or more the average number of the negative control.

[4] = tested on: Salmonella typhimurium TA1537
Procedure: as §1

[5] = tested on: pancreatic progenitor cell population obtained from human iPS cells (Ff-I14-s04 line); assay: induction of differentiation of pancreatic progenitor cell population into insulin-positive cell population, flow cytometry; type: cell-based; settings: Example 3; 3 μM SB431542, 0.3 μM Senexin B or both; versus 10 μM ALK5iII, FIG. 4B
[6] = tested on: insulin-positive cell population obtained from human iPS cells; assay: single-cell RNA-seq analysis of insulin-positive cell populations; type: cell-based; settings: for typical endocrine cells (clusters #0, #1, #2, #3, and #6) in the insulin-positive cell population: 10 μM ALK5iII, 3 μM SB431542, 0.3 μM Senexin B or combination; for percentage of each cluster (#1, #3, #6, and #12) in insulin-positive and NKX6.1-positive cell subpopulation: versus population produced using ALK5iII, FIG. 5
Procedure: Subsequently, in order to compare cell composition among the respective insulin-positive cell populations produced using the inhibitors (1) to (4), single-cell RNA-seq (scRNA-seq) analysis was conducted. A library for scRNA-seq analysis was prepared using Chromium Controller and a preparation kit (Chromium Next GEM Single Cell 3′ Kits v3.1) from 10× Genomics, Inc. and sequenced using Hi-seq platform from Illumina, Inc. Data on the obtained UMI counts was analyzed using Cell Ranger and R Package Seurat from 10× Genomics, Inc. and subjected to dimensionality reduction and visualization using PCA and UMAP. Cell clustering based on the results of dimensionality reduction was carried out by clustering based on the shared nearest neighbor method of Seurat.
As a result, cell clusters #1 to #17 were identified in the respective insulin-positive cell populations produced using the inhibitors (1) to (4). […] The cells of clusters #3 and #6 had features specific for enterochromaffin cells. […] These cells can thereby be discriminated from the cells of cluster #1 adjacent thereto and are therefore considered to be relatively immature β cells. Some of the β cells might be integrated, together with α cells, δ cells, and γ cells, into cluster #0.

[7] = molecular target: RIPK2 (Homo sapiens, UniProt O43353); settings: estimated from inhibition at 0.1 μM and 1 μM
Chain of RIPK2 (O43353 whole entry, species assumed): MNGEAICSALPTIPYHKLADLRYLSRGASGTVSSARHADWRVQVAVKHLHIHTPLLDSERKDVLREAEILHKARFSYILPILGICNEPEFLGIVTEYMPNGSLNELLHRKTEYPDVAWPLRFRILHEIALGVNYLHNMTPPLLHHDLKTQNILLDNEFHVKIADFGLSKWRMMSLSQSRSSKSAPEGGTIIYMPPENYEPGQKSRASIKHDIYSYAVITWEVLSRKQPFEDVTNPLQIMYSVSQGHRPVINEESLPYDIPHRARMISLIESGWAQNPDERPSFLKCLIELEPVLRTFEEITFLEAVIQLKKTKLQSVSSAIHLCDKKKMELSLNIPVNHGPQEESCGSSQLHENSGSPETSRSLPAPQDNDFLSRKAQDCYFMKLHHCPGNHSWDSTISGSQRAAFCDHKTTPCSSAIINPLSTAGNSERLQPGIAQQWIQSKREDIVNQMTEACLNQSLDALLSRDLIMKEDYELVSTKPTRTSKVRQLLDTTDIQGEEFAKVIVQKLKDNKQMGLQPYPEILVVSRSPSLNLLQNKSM

[8] = tested on: 11 kinases including CDK8 and CDK19; settings: 11 of approximately 350 recombinant kinases
[9] = molecular target: CDK19 (Homo sapiens, UniProt Q9BWU1); settings: estimated from inhibition at 0.1 μM and 1 μM
Chain of CDK19 (Q9BWU1 whole entry, species assumed): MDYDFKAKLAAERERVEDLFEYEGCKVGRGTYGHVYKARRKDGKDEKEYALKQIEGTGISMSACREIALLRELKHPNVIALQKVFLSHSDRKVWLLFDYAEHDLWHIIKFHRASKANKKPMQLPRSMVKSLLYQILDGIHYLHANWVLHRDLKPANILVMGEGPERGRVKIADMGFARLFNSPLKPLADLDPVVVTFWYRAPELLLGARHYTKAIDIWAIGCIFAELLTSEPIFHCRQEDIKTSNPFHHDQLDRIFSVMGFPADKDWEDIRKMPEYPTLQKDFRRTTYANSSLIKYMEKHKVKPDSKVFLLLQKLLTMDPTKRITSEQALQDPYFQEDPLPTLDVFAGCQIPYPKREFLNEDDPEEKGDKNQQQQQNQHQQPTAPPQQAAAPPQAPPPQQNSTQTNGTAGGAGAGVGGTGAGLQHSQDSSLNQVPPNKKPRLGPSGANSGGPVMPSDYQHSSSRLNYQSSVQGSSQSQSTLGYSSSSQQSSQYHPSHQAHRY
Chain of CDK19 (P24863 whole entry partner, species assumed): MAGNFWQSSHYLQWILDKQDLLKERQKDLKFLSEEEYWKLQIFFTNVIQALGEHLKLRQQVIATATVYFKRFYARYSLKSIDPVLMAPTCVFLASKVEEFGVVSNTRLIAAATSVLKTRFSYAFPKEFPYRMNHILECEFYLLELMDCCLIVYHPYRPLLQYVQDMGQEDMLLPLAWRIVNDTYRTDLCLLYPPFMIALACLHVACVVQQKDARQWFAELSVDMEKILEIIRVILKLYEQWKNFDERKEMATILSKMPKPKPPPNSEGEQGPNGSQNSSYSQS

[10] = molecular target: TGFBR2 (Homo sapiens, UniProt P37173); settings: estimated from inhibition at 0.1 μM and 1 μM
Chain of TGFBR2 (P37173 23-567, species assumed): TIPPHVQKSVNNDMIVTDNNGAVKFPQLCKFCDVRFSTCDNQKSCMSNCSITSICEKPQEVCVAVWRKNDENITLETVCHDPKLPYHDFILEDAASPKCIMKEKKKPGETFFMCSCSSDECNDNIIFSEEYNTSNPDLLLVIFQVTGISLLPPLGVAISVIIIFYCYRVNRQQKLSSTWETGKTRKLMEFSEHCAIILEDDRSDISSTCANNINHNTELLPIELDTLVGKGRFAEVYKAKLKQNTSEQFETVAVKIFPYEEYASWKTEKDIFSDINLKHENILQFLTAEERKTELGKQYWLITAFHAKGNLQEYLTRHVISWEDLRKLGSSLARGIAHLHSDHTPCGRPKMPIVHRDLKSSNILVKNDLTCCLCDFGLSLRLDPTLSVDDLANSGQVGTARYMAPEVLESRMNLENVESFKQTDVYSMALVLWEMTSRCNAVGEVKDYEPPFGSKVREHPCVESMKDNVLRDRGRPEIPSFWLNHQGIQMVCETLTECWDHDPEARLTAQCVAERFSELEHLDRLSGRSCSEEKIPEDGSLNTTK

[11] = molecular target: CDK8 (Homo sapiens, UniProt P49336); settings: estimated from inhibition at 0.1 μM and 1 μM
Chain of CDK8 (P49336 whole entry, species assumed): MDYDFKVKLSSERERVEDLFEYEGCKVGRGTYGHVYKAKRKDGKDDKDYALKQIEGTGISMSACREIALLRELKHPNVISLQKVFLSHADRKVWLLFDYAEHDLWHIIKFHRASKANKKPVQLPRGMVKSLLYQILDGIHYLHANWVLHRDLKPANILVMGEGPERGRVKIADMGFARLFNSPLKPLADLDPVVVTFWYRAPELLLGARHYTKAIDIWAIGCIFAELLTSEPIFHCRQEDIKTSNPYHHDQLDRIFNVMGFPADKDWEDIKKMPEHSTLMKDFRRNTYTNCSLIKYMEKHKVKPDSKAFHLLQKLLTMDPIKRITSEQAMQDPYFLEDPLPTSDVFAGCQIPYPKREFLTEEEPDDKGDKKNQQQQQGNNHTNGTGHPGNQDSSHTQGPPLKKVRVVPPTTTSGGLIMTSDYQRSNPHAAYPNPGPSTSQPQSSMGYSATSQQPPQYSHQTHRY
Chain of CDK8 (P24863 whole entry partner, species assumed): as the sequence (P24863 whole entry partner, species assumed) above

[12] = molecular target: TNIK (Homo sapiens, UniProt Q9UKE5); settings: estimated from inhibition at 0.1 μM and 1 μM
Chain of TNIK (Q9UKE5 whole entry, species assumed): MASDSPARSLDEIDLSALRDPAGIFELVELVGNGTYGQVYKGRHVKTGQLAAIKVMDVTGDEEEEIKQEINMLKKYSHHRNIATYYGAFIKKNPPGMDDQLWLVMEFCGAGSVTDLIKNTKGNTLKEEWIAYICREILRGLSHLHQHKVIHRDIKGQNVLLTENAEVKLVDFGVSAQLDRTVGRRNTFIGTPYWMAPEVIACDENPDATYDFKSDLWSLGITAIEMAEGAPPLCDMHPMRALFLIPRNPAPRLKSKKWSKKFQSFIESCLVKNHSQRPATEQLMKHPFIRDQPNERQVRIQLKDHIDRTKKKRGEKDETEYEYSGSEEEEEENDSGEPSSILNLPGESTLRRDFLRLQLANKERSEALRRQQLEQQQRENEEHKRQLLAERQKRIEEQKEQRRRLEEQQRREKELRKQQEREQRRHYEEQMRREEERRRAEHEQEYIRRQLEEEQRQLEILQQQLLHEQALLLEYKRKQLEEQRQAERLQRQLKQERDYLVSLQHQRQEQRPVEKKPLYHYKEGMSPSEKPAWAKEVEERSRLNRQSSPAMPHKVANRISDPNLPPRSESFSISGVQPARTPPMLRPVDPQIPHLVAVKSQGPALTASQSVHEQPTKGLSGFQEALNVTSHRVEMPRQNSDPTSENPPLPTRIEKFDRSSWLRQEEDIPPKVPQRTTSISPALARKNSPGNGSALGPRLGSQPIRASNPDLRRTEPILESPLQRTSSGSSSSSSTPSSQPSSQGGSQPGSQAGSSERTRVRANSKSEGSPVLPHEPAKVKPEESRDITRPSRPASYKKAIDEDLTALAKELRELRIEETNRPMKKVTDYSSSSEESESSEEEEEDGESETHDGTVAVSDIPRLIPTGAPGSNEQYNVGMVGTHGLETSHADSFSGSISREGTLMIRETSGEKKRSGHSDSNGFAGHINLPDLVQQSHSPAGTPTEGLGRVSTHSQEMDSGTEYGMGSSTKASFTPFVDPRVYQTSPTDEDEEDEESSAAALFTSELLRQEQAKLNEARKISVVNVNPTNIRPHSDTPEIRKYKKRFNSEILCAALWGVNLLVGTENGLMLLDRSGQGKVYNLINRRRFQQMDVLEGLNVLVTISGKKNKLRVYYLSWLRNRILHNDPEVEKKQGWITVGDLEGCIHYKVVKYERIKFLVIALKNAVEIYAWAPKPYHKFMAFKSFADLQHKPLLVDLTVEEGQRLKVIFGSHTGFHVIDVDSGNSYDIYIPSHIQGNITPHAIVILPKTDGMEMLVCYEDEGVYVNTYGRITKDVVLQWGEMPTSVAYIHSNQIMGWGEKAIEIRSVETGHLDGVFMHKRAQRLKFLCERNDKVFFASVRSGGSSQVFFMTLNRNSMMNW

[13] = molecular target: T1, ALK5 (Homo sapiens, UniProt P36897); assay: ALK5-inhibiting activity (FIG. 1); type: biochemical
T1 sequence (P36897 34-503): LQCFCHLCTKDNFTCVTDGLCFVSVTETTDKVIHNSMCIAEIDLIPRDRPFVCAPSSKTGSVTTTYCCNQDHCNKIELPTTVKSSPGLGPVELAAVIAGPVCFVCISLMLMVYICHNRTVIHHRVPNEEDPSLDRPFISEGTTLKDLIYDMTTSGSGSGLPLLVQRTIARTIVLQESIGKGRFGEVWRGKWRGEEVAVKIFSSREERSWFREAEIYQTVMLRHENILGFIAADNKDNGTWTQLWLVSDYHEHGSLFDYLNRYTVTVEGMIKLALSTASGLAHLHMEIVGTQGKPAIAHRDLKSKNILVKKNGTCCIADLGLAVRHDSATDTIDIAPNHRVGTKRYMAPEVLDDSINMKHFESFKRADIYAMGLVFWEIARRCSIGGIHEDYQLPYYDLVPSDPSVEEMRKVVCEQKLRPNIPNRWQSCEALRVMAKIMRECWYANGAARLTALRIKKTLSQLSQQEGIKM

[14] = Example 2, SB525334 10 μM, SB431542 10 μM, IN1130 1 μM, EW-7197 1 μM, versus control medium (−)
[15] = Example 3, 3 μM SB431542, 0.3 μM Senexin B or both, versus 10 μM ALK5iII, FIG. 4A

Cc1cccc(-c2nc(Cc3cccc(C(N)=O)c3)[nH]c2-c2ccc3nccnc3c2)n1 [IN1130, 3-[[5-(6-Methyl-2-pyridinyl)-4-(6-quinoxalinyl)-1H-imidazol-2-yl]methyl]benzamide]
proportion of CHGA-positive and PDX1-positive cells [1, 14]: equivalent to the control | proportion of insulin-positive and NKX6.1-positive cells [1, 14]: equivalent to the control | inhibitory activity against CDK8 and CDK19 (CDK8/19) [2]: unique to ALK5iII

Cc1cccc(-c2nc(C(C)(C)C)[nH]c2-c2ccc3nccnc3c2)n1 [SB525334, 6-[2-tert-Butyl-5-(6-methylpyridin-2-yl)-1H-imidazol-4-yl]quinoxaline]
proportion of CHGA-positive and PDX1-positive cells [1, 14]: equivalent to the control | proportion of insulin-positive and NKX6.1-positive cells [1, 14]: equivalent to the control | inhibitory activity against CDK8 and CDK19 (CDK8/19) [2]: unique to ALK5iII | mutagenicity / Ames test determination [3]: no mutagenicity

Cc1cccc(-c2[nH]c(CNc3ccccc3F)nc2-c2ccc3ncnn3c2)n1 [EW-7197]
proportion of CHGA-positive and PDX1-positive cells [1, 14]: equivalent to the control | proportion of insulin-positive and NKX6.1-positive cells [1, 14]: equivalent to the control | inhibitory activity against CDK8 and CDK19 (CDK8/19) [2]: unique to ALK5iII

COc1ccc2nc3cc(Cl)ccc3c(NCCCNCCCl)c2c1 [ICR 191]
# of colony ([4]; TA1537, -S9, positive control, 1.0 μg (quinoxaline analog experiment)): 1804

NC(=O)c1ccc(-c2nc(-c3ccc4c(c3)OCO4)c(-c3ccccn3)[nH]2)cc1 [SB431542, 4-[4-(1,3-Benzodioxol-5-yl)-5-(2-pyridinyl)-1H-imidazol-2-yl]-benzamide]
proportion of CHGA-positive and PDX1-positive cells [1, 14]: equivalent to the control | proportion of insulin-positive and NKX6.1-positive cells [1, 14]: equivalent to the control | proportion of insulin-positive and NKX6.1-positive cells [1, 15]: lower values | total cell yield [5]: lower values | inhibitory activity against CDK8 and CDK19 (CDK8/19) [2]: unique to ALK5iII | mutagenicity / Ames test determination [3]: no mutagenicity | clusters #5, #9, #10, #12, and #13 ([6]; scRNA-seq): specialized | typical endocrine cells (clusters #0, #1, #2, #3, and #6) in the insulin-positive cell population ([6]; scRNA-seq): not found | percentage of each cluster (#1, #3, #6, and #12) in insulin-positive and NKX6.1-positive cell subpopulation [6]: different

Cc1cccc(-c2n[nH]cc2-c2ccc3ncccc3n2)n1 [ALK5iII, 2-(3-(6-methylpyridin-2-yl)-1H-pyrazol-4-yl)-1,5-naphthyridine]
Estimate pIC50 value [7]: 6.82 ± 0.05 | estimate pIC50 value against 11 kinases [8]: more than 6 | Estimate pIC50 value [9]: 7.18 ± 0.50 | Estimate pIC50 value [10]: 6.97 ± 0.12 | inhibitory activity against CDK8 and CDK19 (CDK8/19) [2]: unique to ALK5iII | Estimate pIC50 value [11]: 6.80 ± 0.40 | Ames test determination [4]: positive | typical endocrine cells (clusters #0, #1, #2, #3, and #6) in the insulin-positive cell population ([6]; scRNA-seq): found with almost no exception | Estimate pIC50 value [12]: 6.18 ± 0.14

c1cncc(-c2n[nH]cc2-c2cnc3ccccc3n2)c1 [2-(3-(pyridin-3-yl)-1H-pyrazol-4-yl)quinoxaline]
mutagenicity / Ames test determination [3]: positive | ALK5-inhibiting activity [13]: no ALK5-inhibiting activity | # of colony ([4]; TA1537, -S9, 78.1 μg/plate): 5 | # of colony ([4]; TA1537, -S9, 156 μg/plate): 9 | # of colony ([4]; TA1537, -S9, 313 μg/plate): 21 | # of colony ([4]; TA1537, -S9, 625 μg/plate): 45 | # of colony ([4]; TA1537, -S9, 1250 μg/plate): 82 | # of colony ([4]; TA1537, -S9, 2500 μg/plate): 128 | # of colony ([4]; TA1537, -S9, 5000 μg/plate): 194

CN1CCN(C(=O)c2ccc3cc(CCNc4ncnc5ccc(C#N)cc45)ccc3c2)CC1 [Senexin B, 4-((2-(6-(4-Methylpiperazine-1-carbonyl)naphthalen-2-yl)ethyl)amino)quinazoline-6-carbonitrile]
proportion of insulin-positive and NKX6.1-positive cells [1, 15]: higher percentage | total cell yield [5]: lower value | typical endocrine cells (clusters #0, #1, #2, #3, and #6) in the insulin-positive cell population ([6]; scRNA-seq): found with almost no exception | percentage of each cluster (#1, #3, #6, and #12) in insulin-positive and NKX6.1-positive cell subpopulation [6]: different

Cl.Nc1c2ccccc2nc2ccccc12.O [Compound 9-AA, 9-aminoacridine hydrochloride monohydrate]
# of colony ([4]; TA1537, -S9, positive control, 80 μg (ALK5 i II experiment)): 169
